The record followed here is patent publication US5861414A, “Piperidineacetic acid derivatives useful as fibrinogen antagonist agent” (priority 1994, dated 1999).

Structures can show the parent of a compound that is named as a salt. Where two headings read alike, the source gives them in different places.

This assay deals with human washed and resuspended platelets (HRP). Kind of assay: Inhibition of U-46619-induced platelet aggregation in washed human platelets (turbidometric, Born-type aggregometer). It counts as cell-based. The following applies: read-out: IC50, concentration of the compound required to inhibit platelet aggregation by 50%. How it is done: Inhibition of platelet aggregation by compounds of the invention was determined according to the following procedure. […] The blood was treated with aspirin (0.1 mM) and prostacyclin (0.06 μM) prior to centrifugation (1400 g, 4 minutes, 20° C.). The supernatant platelet-rich plasma (PRP) was isolated and further centrifuged (1400 g, 10 minutes, 20° C.) to sediment the platelets. […] This platelet suspension was centrifuged (1400 g, 8 minutes, 20° C.) and the resultant platelet pellet was resuspended into the physiological salt solution adjusted to pH 7.4. The resultant washed-platelet preparation was diluted to give a final platelet count of […]. […] Platelet aggregation was quantified using a turbidometric method.

[1] abbreviates: Homo sapiens, Platelet, washed human platelets, 37° C, 5 minutes pre-incubation, agonist 1 μM U-46619, fibrinogen 0.5 mg/ml.

With `O=C(O)CN1CCC(c2nn(Cc3ccc(F)cc3)c3cc(/C=C/C4CCNCC4)ccc23)CC1` [1 (xiii), {4-[1-(4-Fluoro-benzyl)-6-(2-piperidin-4-yl-(E)-vinyl)-1H-indazol-3-yl]-piperidin-1-yl}-acetic acid trifluoroacetate], the IC50 under setting [1] is 126 nM.
Consider `O=C(O)CN1CCC(c2n[nH]c3cc(/C=C/C4CCNCC4)ccc23)CC1` [2 (ii), {4-[6-(2-Piperidin-4-yl-(E)-vinyl)-1H-indazol-3-yl]-piperidin-1-yl}-aceticacid trifluoroacetate], for which, under setting [1], the IC50 was found to be 92 nM.
Consider `O=C(O)CN1CCC(c2n[nH]c3cc(/C=C/C4CCNCC4)ccc23)CC1` [2 (iv), {4-[6-(2-Piperidin-4-yl-(E)-vinyl)-1H-indazol-3-yl]-piperidin-1-yl}-aceticacid, hydrochloride hydrate], for which the IC50 (Homo sapiens, Platelet) was 67 nM.
On to `O=C(O)CN1CCC(c2nn(Cc3ccc(Cl)c(Cl)c3)c3cc(/C=C/C4CCNCC4)ccc23)CC1` [3 (ii), {4-[1-(3,4-Dichloro-benzyl)-6-(2-piperidin-4-yl-(E)-vinyl)-1H-indazol-3-yl]-piperidin-1-yl}-acetic acid trifluoroacetate], for which the IC50 under setting [1] worked out at 74 nM.
As for `O=C(O)CN1CCC(c2nn(Cc3ccc(Cl)cc3)c3cc(/C=C/C4CCNCC4)ccc23)CC1` [4 (ii), (4-{1-(4-Chloro-benzyl)-6-[2-piperidin-4-yl-(E)-vinyl]-1H-indazol-3-yl}-piperidin-1-yl)-acetic acid trifluoroacetate], the IC50 under setting [1] came out at 72 nM.
Take `O=C(O)CN1CCC(c2nn(Cc3ccc(Cl)cc3)c3cc(CCC4CCNCC4)ccc23)CC1` [5 (iii), {4-[1-(4-Chloro-benzyl)-6-(2piperidin-4-yl-ethyl)-1H-indazol-3-yl-piperidin-1-yl}-acetic acid trifluoroacetate]: the IC50 under setting [1] was found to be 80 nM.
Regarding `O=C(O)CN1CCC(c2nn(Cc3ccc(F)cc3)c3cc(/C=C/C4CCNCC4)ccc23)CC1` [6 (ii), {4-[1-(4-Fluoro-benzyl)-6-(2-piperidin-4-yl-(E)-vinyl)-1H-indazol-3-yl]-piperidin-1-yl}-acetic acid hydrochloride], the IC50 (washed human platelets, 37° C, 5 minutes pre-incubation, agonist 1 μM U-46619, fibrinogen 0.5 mg/ml, hydrochloride) worked out at 110 nM.
As for `O=C(O)CN1CCC(c2nn(Cc3ccccc3)c3cc(/C=C/C4CCNCC4)ccc23)CC1` [7 (ii), {4-[1-Benzyl-6-(2-piperidin-4-yl-(E)-vinyl)-1H-indazol-3-yl]-piperidin-1-yl}-acetic acid trifluoroacetate], under setting [1], the IC50 was found to be 107 nM.
